From US7141590B2, “Pharmaceutical uses and synthesis of nicotinanilide-N-oxides” (UCB SA, priority 2000, dated 2006)

Assays:
[1] = molecular target: T1, human chemokine CCR5 receptor (Homo sapiens, UniProt P51681); details: CCR5 reference data; cited from earlier work
T1 construct: host or cells: CHO-K1-p242-CCR5 cells

[2] = tested on: polymorphonuclear neutrophils (PMNs); experiment: GRO-α driven chemotaxis assay with PMNs (ChemoTx plate); type: cell-based; details: 20 μM compound; 50 nM GRO-α, human PMNs
Experimental: Peripheral blood from healthy human volunteers was collected into heparin, diluted in an equal volume of PBS, layered over Ficoll-Paque Plus (Pharmacia Biotech, Uppsala, Sweden), and spun at 400×g for 30 min. The PMN rich fraction was removed and residual erythrocytes were lysed with hypotonic saline. The polymorphonuclear neutrophils (PMNs) were washed once with assay buffer (Dulbecco's PBS containing divalent cations and 0.1% endotoxin-free BSA), and resuspended at 1E7 cells/mL in the same buffer. PMNs were loaded with 5 μM calcein AM (Molecular Probes, Eugene, Oreg.), washed twice and resuspended in assay buffer.
Growth Regulatory Oncogene a (GRO-α) driven chemotaxis assays were performed according to the following protocol. […] Test compounds were dissolved in DMSO (100%) at 20 mM and diluted in assay buffer to the desired concentrations; final DMSO concentration was 0.2%. Neutrophil migration proceeded for 40 min at 37° C. in a humidified incubator with 5% CO2. After removing nonmigrated cells from the top of the plate, migrated cells were quantified by reading fluorescence on a Wallac Victor.
The ratio of the positive to negative controls represents the chemotactic index of the cells. The results from this assay are reported in Tables 3–5, under the column headings IL-8 and GRO-α, and under the sub-column headings ChTx (for chemotaxis).

[3] = molecular target: T2, IL-8 type β receptor (IL-8Rβ) (Homo sapiens, UniProt P25025); experiment: [125I] IL-8 binding assay (WGA-SPA beads, IL-8Rβ membranes); details: 20 uM compound; [125I] IL-8, IL-8Rβ membranes
T2 construct: purchased BioSignal, Montreal, Canada; host or cells: Sf9 cells
T2 sequence (P25025 1-360): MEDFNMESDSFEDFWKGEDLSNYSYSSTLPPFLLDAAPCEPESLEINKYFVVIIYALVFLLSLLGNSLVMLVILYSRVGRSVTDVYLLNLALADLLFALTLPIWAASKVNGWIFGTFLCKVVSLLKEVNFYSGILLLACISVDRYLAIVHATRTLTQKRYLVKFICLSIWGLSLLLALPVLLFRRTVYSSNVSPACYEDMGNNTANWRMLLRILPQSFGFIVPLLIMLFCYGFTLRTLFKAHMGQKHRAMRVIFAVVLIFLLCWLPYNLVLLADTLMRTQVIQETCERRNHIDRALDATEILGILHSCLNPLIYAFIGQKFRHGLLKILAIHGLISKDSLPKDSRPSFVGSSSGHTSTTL
Experimental: IL-8 (human recombinant) was obtained from NEN Life Science Products, Inc., Boston, Mass., with specific activity of 2200 Ci/mmol. Recombinant human IL-8 was obtained from R&D Systems, Minneapolis, Minn. IL-8 type β receptor membranes were prepared from […] co-expressed with Gαi3β1γ2 proteins by BioSignal™, Montreal, Canada. Wheat Germ Agglutinin Scintillation Proximity Assay Beads were obtained from Amersham Pharmacia Biotech, Piscataway, N.J. All assays were performed in a 96-well, solvent resistant, white PicoPlate obtained from Packard Instruments. […] The assay was initiated by the addition of WGA-SPA beads in 25 mM Hepes (pH 7.4) containing 2 mM CaCl2 and 1 mM MgCl2. After 4–6 hours of gentle agitation at room temperature, the plate was counted on the Packard TopCount liquid scintillation counter.

T1 sequence (P51681 whole entry): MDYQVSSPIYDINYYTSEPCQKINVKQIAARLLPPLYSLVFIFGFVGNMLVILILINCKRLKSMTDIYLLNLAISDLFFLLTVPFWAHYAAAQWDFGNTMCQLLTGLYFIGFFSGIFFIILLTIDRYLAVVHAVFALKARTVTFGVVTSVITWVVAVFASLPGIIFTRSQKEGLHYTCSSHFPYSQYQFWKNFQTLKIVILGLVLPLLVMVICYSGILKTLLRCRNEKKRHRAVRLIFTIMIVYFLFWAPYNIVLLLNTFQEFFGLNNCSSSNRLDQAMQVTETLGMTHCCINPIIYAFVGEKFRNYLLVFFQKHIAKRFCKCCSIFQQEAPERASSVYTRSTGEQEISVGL

Compound | IC50 [1] [pM] | Ki [1] [pM] | nH [1] | GRO-α ChTx @ 20 μM, % [2] | IL-8 Binding @ 20 uM, % [3]
RANTES: regulated on activation of normal T-cell expressed and secreted | 12 | 9.3 | 0.9 |  | 
CCCS(=O)(=O)c1ccc(C(=O)Nc2ccc(F)cc2)c[n+]1[O-] [drawing 51] |  |  |  | ** (“**” for % values greater than 40) | ** (“**” for % values greater than 40)
CC(C)S(=O)(=O)c1ccc(C(=O)Nc2ccc(F)cc2)c[n+]1[O-] |  |  |  | ** (“**” for % values greater than 40) | ** (“**” for % values greater than 40)
O=C(O)c1cccc(S(=O)(=O)c2ccc(C(=O)Nc3ccc(F)cc3)c[n+]2[O-])c1 |  |  |  | * (“*” for % values of less than or equal to 40) | ** (“**” for % values greater than 40)
O=C(Nc1ccc(F)cc1)c1ccc(S(=O)(=O)c2ccc(F)cc2)[n+]([O-])c1 |  |  |  | ** (“**” for % values greater than 40) | ** (“**” for % values greater than 40)
CCOc1cccc(NC(=O)c2ccc(Cl)[n+]([O-])c2)c1 |  |  |  | C* | * (“*” for % values of less than or equal to 40)
O=C(Nc1ccc(OC(F)(F)F)cc1)c1ccc(Cl)[n+]([O-])c1 |  |  |  | * (“*” for % values of less than or equal to 40) | * (“*” for % values of less than or equal to 40)
Cc1ccc(C(=O)Nc2ccc(F)cc2)c[n+]1[O-] |  |  |  | * (“*” for % values of less than or equal to 40) | *(2) (“*” for % values of less than or equal to 40)
O=C(NCc1ccccc1)c1ccc(Cl)[n+]([O-])c1 |  |  |  | * (“*” for % values of less than or equal to 40) | * (“*” for % values of less than or equal to 40)
O=C(Nc1ccc(F)cc1)c1ccc(S(=O)(=O)c2ccccc2)[n+]([O-])c1 [drawing 47] |  |  |  | ** (“**” for % values greater than 40) | ** (“**” for % values greater than 40)
O=C(NC(c1ccccc1)c1ccccc1)c1ccc(Cl)[n+]([O-])c1 |  |  |  | ** (“**” for % values greater than 40) | * (“*” for % values of less than or equal to 40)
O=C(Nc1ccc(F)cc1)c1ccc(Nc2ccccc2)[n+]([O-])c1 |  |  |  | * (“*” for % values of less than or equal to 40) | ** (“**” for % values greater than 40)
O=C(Nc1cccc(I)c1)c1ccc(Cl)[n+]([O-])c1 |  |  |  | ** (“**” for % values greater than 40) | * (“*” for % values of less than or equal to 40)
Cc1cccc(S(=O)(=O)c2ccc(C(=O)Nc3ccc(F)cc3)c[n+]2[O-])c1 |  |  |  | ** (“**” for % values greater than 40) | * (“*” for % values of less than or equal to 40)
COc1ccc(C(=O)Nc2ccc(F)cc2)c[n+]1[O-] |  |  |  | ** (“**” for % values greater than 40) | * (“*” for % values of less than or equal to 40)
O=C(Nc1cccc(OC(F)(F)F)c1)c1ccc(Cl)[n+]([O-])c1 |  |  |  | * (“*” for % values of less than or equal to 40) | * (“*” for % values of less than or equal to 40)
O=C(Nc1ccc(F)cc1)c1ccc(N2CCCC2)[n+]([O-])c1 |  |  |  | * (“*” for % values of less than or equal to 40) | * (“*” for % values of less than or equal to 40)
O=C(Nc1ccccc1F)c1ccc(Cl)[n+]([O-])c1 |  |  |  | ** (“**” for % values greater than 40) | * (“*” for % values of less than or equal to 40)
O=C(Nc1ccc(F)cc1)c1ccc(NCCO)[n+]([O-])c1 |  |  |  | ** (“**” for % values greater than 40) | * (“*” for % values of less than or equal to 40)
CS(=O)(=O)c1ccc(C(=O)Nc2ccc(F)cc2)c[n+]1[O-] [drawing 44] |  |  |  | ** (“**” for % values greater than 40) | ** (“**” for % values greater than 40)

Compound | IC50 [1] [pM] | Ki [1] [pM] | nH [1] | GRO-α ChTx @ 20 μM, % [2] | IL-8 Binding @ 20 uM, % [3]
O=C(Nc1ccc(OCc2ccccc2)cc1)c1ccc(Cl)[n+]([O-])c1 |  |  |  | ** (“**” for % values greater than 40) | * (“*” for % values of less than or equal to 40)
O=C(Nc1cccc(F)c1)c1ccc(Cl)[n+]([O-])c1 |  |  |  | ** (“**” for % values greater than 40) | * (“*” for % values of less than or equal to 40)
O=C(Nc1ccc(F)cc1)c1ccc(Cl)[n+]([O-])c1 [Cl—, 6-Chloro-N-(4-fluoro-phenyl)-1-oxy-nicotinamide] |  |  |  | ** (“**” for % values greater than 40) | **(1) (“**” for % values greater than 40)
Cc1cc(F)ccc1NC(=O)c1ccc(Cl)[n+]([O-])c1 |  |  |  | ** (“**” for % values greater than 40) | * (“*” for % values of less than or equal to 40)
CSc1ccc(C(=O)Nc2ccc(F)cc2)c[n+]1[O-] |  |  |  | ** (“**” for % values greater than 40) | ** (“**” for % values greater than 40)
O=C(O)CCS(=O)(=O)c1ccc(C(=O)Nc2ccc(F)cc2)c[n+]1[O-] |  |  |  | * (“*” for % values of less than or equal to 40) | ** (“**” for % values greater than 40)
CNc1ccc(C(=O)Nc2ccc(F)cc2)c[n+]1[O-] |  |  |  | ** (“**” for % values greater than 40) | ** (“**” for % values greater than 40)
O=C(NC1CCCC1)c1ccc(Cl)[n+]([O-])c1 |  |  |  | * (“*” for % values of less than or equal to 40) | * (“*” for % values of less than or equal to 40)
O=C(Nc1cccc(Br)c1)c1ccc(Cl)[n+]([O-])c1 |  |  |  | ** (“**” for % values greater than 40) | * (“*” for % values of less than or equal to 40)
O=C(Nc1cc(C(F)(F)F)cc(C(F)(F)F)c1)c1ccc(Cl)[n+]([O-])c1 |  |  |  | * (“*” for % values of less than or equal to 40) | * (“*” for % values of less than or equal to 40)
O=C(Nc1ccc(F)cc1)c1ccc(-n2ccnc2)[n+]([O-])c1 |  |  |  | * (“*” for % values of less than or equal to 40) | * (“*” for % values of less than or equal to 40)
CCS(=O)(=O)c1ccc(C(=O)Nc2ccc(F)cc2)c[n+]1[O-] [drawing 49] |  |  |  | ** (“**” for % values greater than 40) | ** (“**” for % values greater than 40)
O=C(Nc1ccc(I)c(Cl)c1)c1ccc(Cl)[n+]([O-])c1 |  |  |  | ** (“**” for % values greater than 40) | * (“*” for % values of less than or equal to 40)
O=C(NCc1ccco1)c1ccc(Cl)[n+]([O-])c1 |  |  |  | * (“*” for % values of less than or equal to 40) | * (“*” for % values of less than or equal to 40)
O=C(NCc1ccc(F)cc1)c1ccc(Cl)[n+]([O-])c1 |  |  |  | * (“*” for % values of less than or equal to 40) | * (“*” for % values of less than or equal to 40)
CCSc1ccc(C(=O)Nc2ccc(F)cc2)c[n+]1[O-] |  |  |  | * (“*” for % values of less than or equal to 40) | * (“*” for % values of less than or equal to 40)
O=C(Nc1ccc(F)cc1)c1ccc(S(=O)(=O)C2CCCC2)[n+]([O-])c1 [drawing 53] |  |  |  | ** (“**” for % values greater than 40) | ** (“**” for % values greater than 40)
O=C(Nc1ccc(F)c(F)c1)c1ccc(Cl)[n+]([O-])c1 [drawing 70] |  |  |  | ** (“**” for % values greater than 40) | * (“*” for % values of less than or equal to 40)
CCCCCNc1ccc(C(=O)Nc2ccc(F)cc2)c[n+]1[O-] |  |  |  | ** (“**” for % values greater than 40) | * (“*” for % values of less than or equal to 40)
